Results as given in publication PMC11718441, “Bis-3-chloropiperidines: a novel motif for anthelmintic drug design” (RSC Advances, 2025).
Converted amounts (≈) assume the structure as drawn. Like-named read-outs stand apart in the source and are kept apart here.

How the values were obtained:
[1] = system: Septoria tritici MUCL45408; assay: Minimum inhibitory concentration (MIC), S. tritici (ATP quantification); assay type: cell-based; conditions: for MIC: Zymoseptoria tritici, read-out: MIC St
Description: (§1) The minimum inhibitory concentration (MIC) of the synthesized compounds was initially determined against three microbial indicator strains (Escherichia coli ATCC35218, […] ATCC33592, Septoria tritici MUCL45408). […]
(§2) 2. Microbial and parasitological studies
(§3) The minimum inhibitory concentration (MIC) of the synthesized compounds was determined against three microbial indicator strains (E. coli ATCC35218, S. aureus ATCC33592 and S. tritici MUCL45408) as previously described.1,2 All samples were dissolved in DMSO and tested in triplicate. Briefly, a pre-culture of E. coli and S. aureus was prepared by incubating the strains in cation adjusted Mueller Hinton 2 broth (Becton Dickinson, Sparks, NV, USA) at 37°C and 180 rpm overnight. The cell density of adjusted to 5 × 10^5 cells/mL before assays were incubated at 37 °C, 180 rpm and 85% rH. Three distinct dilution series of standard antibiotics (gentamicin, rifampicin, and tetracycline) were used as positive controls on each assay plate. Inoculated medium without test compound or positive control was used as negative control.
Medium background was averaged from 5 replicates. The turbidity of each well was measured with a microplate spectrophotometer at 600 nm (LUMIstar® Omega, BMG Labtech) and growth inhibition was calculated relative to the absorption of the controls. For S. tritici MUCL45408 inoculated at a density of 1 × 10^5 cells/mL in potato […]
dextrose medium. Septoria assay plates were incubated for 4 days at 25 °C, 180 rpm and 85% rH. Tebuconazole, amphotericin B, and nystatin were used as positive controls. Cell viability was evaluated via ATP quantification (BacTiter-Glo™, Promega GmbH, Walldorf, Germany) according to the manufacturer’s instructions. […]

C. elegans DC19 = assay: whole plant or invertebrate; assay type: cell-based, Caenorhabditis elegans
From the text: (§4) The cuticle of C. elegans strain DC19 is known to be more permeable for small molecules compared to the wildtype N2.[30] DC19 is thereby considered an informative drug-sensitive test organism. In our assays, we determined the minimum mobility inhibitory concentration (MMIC) as a proxy for anthelmintic activity. […] In contrast, MMICs of some small molecule anthelmintics such as albendazole, mebendazole or PF-1022A were lower for DC19 (Fig. S1 ^†). […]
(§5) 2.2 In vitro tests against Caenorhabditis Elegans
(§6) The minimal motility inhibitory concentration (MMIC) of compounds 1-22 against C. elegans was determined as described before.3 Both strains, C. elegans N2 and DC19 were treated identically. Briefly, pre-cultures of C.elegans were kept on NGM agar plates infused with auxotrophic E.coli OP50 as food source.4 After 4 days the plates contained sufficient gravid worms, respectively. Worms were washed from the plates with M9 buffer using wide bore pipette tips. Egg preparation was carried out by treating the harvested worms with an alkaline hypochlorite solution (5 M NaOH + 5 % NaOCl 1:2) in polypropylene tubes. Larvae and adult […]
(§7) We carried out 3 washing steps (M9 buffer) to remove carry-over hypochlorite solution. Subsequently, the eggs were incubated overnight in NGM broth on a rotator to yield synchronized hatched L1/L2 larvae. The larvae solution was adjusted to 100 worms/mL and supplemented with cholesterol (5 µg/mL), carbenicillin (25 µg/mL) and E.coli OP50 (0.5%). This assay solution was distributed into 96 well plates and incubated with a dilution series of compounds 1-22 (64-0.5 µg/mL). An additional eight-point dilution series of ivermecin (40 – 0.3 ng/mL) was used as positive control on each assay plate. Solvent background was controlled by supplementation of pure DMSO without any compound. Assays were incubated for 2 days at room temperature. Finally, a cell imaging multimode reader (Cytation™ 5) was used to record short videos (1.5 seconds) of each individual test well. The videos were used to evaluate the worm motility.

C. elegans N2 = assay: whole plant or invertebrate; assay type: cell-based, Caenorhabditis elegans; conditions: for minimal effective concentration: Caenorhabditis elegans, 48 h, read-out: MMIC N2
From the text: as §4, §5, §6, §7

Schistosoma mansoni = assay: In vitro tests against Schistosoma mansoni (vitality parameters of adult worm pairs); assay type: cell-based
Description: Subsequently, we tested whether compounds with nematocidal activity display a broader activity also against parasitic flatworms. To this end, in vitro tests against the blood fluke S. mansoni were conducted (Fig. 4). The worms were incubated in presence of 10 and 20 μM of compounds 1–22 and phenotypic vitality parameters (separation of worm pairs, detachment of suckers from the bottom of the well and weakening of body movements) were assessed as previously described.[31] Compounds reaching 100% effect strength in one of the parameters within 7 days were considered active. Reduction of motility is considered most relevant for antischistosomal drug candidates.[32] In addition, loss of sucker activity would make parasites drifting off from their host habitat (mesenteric veins) and with pair separation, the production of pathology-causing eggs eventually ceases.[33] […] For some molecular targets e.g. glutamate and GABA chloride channels (ivermecin, abamectin) and β-tubulin (albendazole, mebendazole) the C. elegans assays results were transferable to Schistosoma, while for others e.g. acetylcholin mimetic (levamisole) the C. elegans MMIC was not predicative (Fig. S1 ^†).
2.2 Parasitological studies
Animal experiments were performed in accordance with Directive 2010/63/EU on the protection of animals used for scientific purposes and the German Animal Welfare Act. The experiments were approved by the Regional Council (Regierungspraesidium) Giessen (V54 – […]
A Liberian strain of S. mansoni was maintained in the freshwater snail Biomphalaria glabrata as intermediate host and Syrian hamsters (Mesocricetus auratus) as final host (Janvier Labs, France).5,6 Hamsters were infected at 8 weeks of age with 1,750 cercariae by using the paddling method.7 Adult worms were collected at 46 days p.i. by hepatoportal perfusion and cultured in M199 medium (Sigma-Aldrich, Germany) supplemented with 10% Newborn Calf Serum (NCS, Sigma-Aldrich), 1% 1 M HEPES (ThermoFisher Scientific, USA) and 1% ABAM solution (10,000 units/ml penicillin, 10 mg/ml streptomycin and […] amphotericin B; Sigma-Aldrich, Germany) at 37 °C, 5% CO2 and humidified atmosphere.
2.2.3. In vitro tests against Schistosoma mansoni
Test compounds were added at 10 µM or 20 µM in supplemented M199 medium to schistosomes (5 worm pairs per replicate) followed by a 7 d in vitro culture. Worms receiving the solvent DMSO at equal dilution served as negative control. The following vitality parameters were assessed every 24 h by bright field microscopy using a Leica DM IL inverted microscope and x2.5 objective lens: separation of worm pairs into male and female worms; detachment of suckers from the bottom; and weakening of body movements. Worm motility was scored as described previously, 8 with the scores 3 (normal motility), 2 (reduced motility), 1 (minimal and sporadic movements), 0 (no movements within 20 sec; dead worms). An average score of all worms per well was calculated to obtain a motility score. An average motility score of 0, separation of all pairs or detachment of all worms per well was considered

MDCK II cells = assay: In vitro cytotoxicity, CellTiter-Glo, MDCK II cells; conditions: 100 μM; for MDCKII cytotoxicity: 48 h, cell viability less than 80% relative to DMSO control = cytotoxic
[2] = system: Escherichia coli ATCC35218; assay: microbe, parasite or virus in culture; assay type: cell-based; conditions: ATCC35218, read-out: MIC Ec
Description: as §1, §2
as §3, with “and tetracycline) were used as positive controls on each assay plate. Inoculated medium without test compound or positive control was used as negative control.” left out
(§8) medium without test compound or positive control was used as negative control.
(§9) Medium background was averaged from 5 replicates. The turbidity of each well was […]

S. aureus ATCC33592 = assay: microbe, parasite or virus in culture; assay type: cell-based; conditions: Staphylococcus aureus, ATCC33592, read-out: MIC Sa
Description: as §1, §2
as §3, with “and tetracycline) were used as positive controls on each assay plate. Inoculated medium without test compound or positive control was used as negative control.” left out
as §8, §9

[3] = Figure S1, common small molecule anthelminthics

Compound: C[C@@H]1[C@H](O)[C@@H](C)/C=C/C=C/C=C/C=C/C=C/C=C/C=C/[C@H](O[C@@H]2O[C@H](C)[C@@H](O)[C@H](N)[C@@H]2O)C[C@@H]2O[C@](O)(C[C@@H](O)C[C@@H](O)[C@H](O)CC[C@@H](O)C[C@@H](O)CC(=O)O[C@H]1C)C[C@H](O)[C@H]2C(=O)O [AMP, amphotericin B, reference compound]
- MIC ([1]; MUCL45408, 96 h): 0.125 mg/L (≈ 0.135 µM)

Compound: CCCSc1ccc2nc(NC(=O)OC)[nH]c2c1 [Albendazole, reference compound]
- C. elegans MMIC DC19 (C. elegans DC19): < 0.08 µg/mL
- C. elegans MMIC N2 (C. elegans N2): 0.16 µg/mL

Compound: CNC(=O)O/N=C/C(C)(C)SC [Aldicarb, reference compound]
- C. elegans MMIC DC19 (C. elegans DC19; [3]): > 10 µg/mL
- C. elegans MMIC N2 (C. elegans N2; [3]): > 10 µg/mL

Compound: CC1(C)CC(Cl)CN(Cc2cccc(CN3CC(Cl)CC(C)(C)C3)c2)C1 (centres unmarked) [Compound 1]
- activity against S. mansoni (100% effect strength in one parameter within 7 days = active) (Schistosoma mansoni; 10 or 20 μM): Schistosoma-specific
- motility score (Schistosoma mansoni; score 3 normal motility to 0 dead, paragraph on 20 μM): 1–1.2
- cytotoxicity against MDCK II (in words) (MDCK II cells): cytotoxic
- MDCKII cytotoxicity (MDCK II cells): + (“+” (toxic))
- minimal effective concentration (C. elegans N2): 64 µg/mL
- MIC ([1]; MUCL45408, 96 h): 64 mg/L (≈ 161 µM)
- MIC [2]: > 64 mg/L
- MIC (S. aureus ATCC33592): > 64 mg/L

Compound: CC1(C)CC(Cl)CN(Cc2cccc(CN3CC(Cl)CC(C)(C)C3)n2)C1 (centres unmarked) [Compound 6]
- MDCKII cytotoxicity (MDCK II cells): + (“+” (toxic))
- minimal effective concentration (C. elegans N2): 64 µg/mL
- MIC ([1]; MUCL45408, 96 h): > 64 mg/L
- MIC [2]: > 64 mg/L
- MIC (S. aureus ATCC33592): 64 mg/L (≈ 161 µM)

Compound: CCCCN1CC(Cl)CC(C)(C)C1 (centres unmarked) [Compound 16]
- MDCKII cytotoxicity (MDCK II cells): − (“−” (not toxic))
- minimal effective concentration (C. elegans DC19; Caenorhabditis elegans, 48 h, read-out: MMIC DC19): > 64 µg/mL
- minimal effective concentration (C. elegans N2): > 64 µg/mL
- MIC ([1]; MUCL45408, 96 h): > 64 mg/L
- MIC [2]: > 64 mg/L
- MIC (S. aureus ATCC33592): > 64 mg/L

Compound: CNC(C)C1CCC(N)C(OC2C(N)CC(N)C(OC3OCC(C)(O)C(NC)C3O)C2O)O1 (centres unmarked) [GEN, gentamicin, reference compound]
- MIC [2]: 1 mg/L (≈ 2.09 µM)
- MIC (S. aureus ATCC33592): 0.5 mg/L (≈ 1.05 µM)

Compound: C[C@H](CCC(=O)O)C[C@H](C)C[C@H](C)C(=O)/C=C(\O)[C@H](C)C[C@H](C)C/C=C/[C@@H](C)[C@@H](O)[C@@H](C)[C@@H](O)C[C@@H]1CC[C@@](C)([C@H]2CC[C@@](C)([C@@H](C)O)O2)O1 [ION, ionomycin, reference compound]
- MDCKII cytotoxicity (MDCK II cells): + (“+” (toxic))

Compound: c1ccc([C@H]2CN3CCSC3=N2)cc1 [Levamisole, reference compound]
- C. elegans MMIC DC19 (C. elegans DC19): 0.3 µg/mL
- C. elegans MMIC N2 (C. elegans N2): 0.3 µg/mL

Compound: COC(=O)Nc1nc2ccc(C(=O)c3ccccc3)cc2[nH]1 [Mebendazole, reference compound]
- C. elegans MMIC DC19 (C. elegans DC19; [3]): 0.3 µg/mL
- C. elegans MMIC N2 (C. elegans N2; [3]): 1.25 µg/mL

Compound: C[C@@H]1[C@H](O)[C@@H](C)/C=C/C=C/CC/C=C/C=C/C=C/C=C/C(O[C@H]2O[C@H](C)[C@@H](O)[C@H](N)[C@@H]2O)CC2O[C@](O)(CC(O)C(O)CCC(O)CC(O)CC(O)CC(=O)O[C@H]1C)CC(O)C2C(=O)O (some centres unmarked) [NYS, nystatin, reference compound]
- MIC St ([1]; S. tritici MUCL45408, 4 days): 0.25 mg/L (≈ 0.27 µM)

Compound: CC(=O)Oc1ccccc1C(=O)Nc1ncc([N+](=O)[O-])s1 [Nitazoxanide, reference compound]
- C. elegans MMIC DC19 (C. elegans DC19; [3]): > 10 µg/mL
- C. elegans MMIC N2 (C. elegans N2; [3]): > 10 µg/mL

Compound: CC(C)C[C@H]1C(=O)O[C@H](Cc2ccccc2)C(=O)N(C)[C@@H](CC(C)C)C(=O)O[C@H](C)C(=O)N(C)[C@@H](CC(C)C)C(=O)O[C@H](Cc2ccccc2)C(=O)N(C)[C@@H](CC(C)C)C(=O)O[C@H](C)C(=O)N1C [PF-1022A, reference compound]
- C. elegans MMIC DC19 (C. elegans DC19; [3]): 2.5 µg/mL
- C. elegans MMIC N2 (C. elegans N2; [3]): 10 µg/mL

Compound: O=C(C1CCCCC1)N1CC(=O)N2CCc3ccccc3C2C1 (centres unmarked) [Praziquantel, reference compound]
- C. elegans MMIC DC19 (C. elegans DC19; [3]): > 10 µg/mL
- C. elegans MMIC N2 (C. elegans N2; [3]): > 10 µg/mL

Compound: CO[C@H]1/C=C/O[C@@]2(C)Oc3c(C)c(O)c4c(O)c(c(/C=N/N5CCN(C)CC5)c(O)c4c3C2=O)NC(=O)/C(C)=C\C=C\[C@H](C)[C@H](O)[C@@H](C)[C@@H](O)[C@@H](C)[C@H](OC(C)=O)[C@@H]1C [RIF, rifampicin, reference compound]
- MIC [2]: 4 mg/L (≈ 4.86 µM)
- MIC (S. aureus ATCC33592): > 64 mg/L

Compound: CC(C)(C)C(O)(CCc1ccc(Cl)cc1)Cn1cncn1 (centres unmarked) [TEB, tebuconazole, reference compound]
- MIC ([1]; 96 h, S. tritici MUCL45408, 4 days): > 0.03 mg/L

Compound: Abamectin [reference compound]
- C. elegans MMIC DC19 (C. elegans DC19; [3]): < 0.08 µg/mL
- C. elegans MMIC N2 (C. elegans N2; [3]): < 0.08 µg/mL

Compound: ivermectin [IVR, reference compound]
- MMIC DC19 (C. elegans DC19; C. elegans DC19, 2 days): 0.005 µg/mL
- C. elegans MMIC DC19 (C. elegans DC19; [3]): 0.005 µg/mL
- MMIC N2 (C. elegans N2; C. elegans N2, 2 days): 0.005 µg/mL
- C. elegans MMIC N2 (C. elegans N2; [3]): 0.005 µg/mL
